Laboratory results published in patent publication US20250214973A1, “1,4,5-TRISUBSTITUTED-1,2,3-TRIAZOLES AND USES THEREOF” (UNIVERSITY OF PUERTO RICO, priority 2022, published 2025).

Columns and labels:
MDA-MB-231 [1] = assay: Initial screening, inhibition of migration (wound gap); format: cell-based; settings: Homo sapiens, at 10 μM, read-out: Inh. of migration
Method: In addition, the inhibition of migration of MDA-MB-231 was determined via the following procedure:
Prior to assays, cells were grown until 80-90% confluence was observed. We used a 75 cm^2 flask for 2.6×10^5 cells/mL in 10 mL and for a 25 cm^2 flask 1.44×10^5 cells/mL in 5 mL. The cells were washed with PBS to remove all traces of FBS. We added 2 mL for a 25 cm^2 flasks or 4 mL for a 75 cm^2 flasks trypsin, and incubated 5-10 min at 37° C. At the end of the incubation time, cells were re-suspended and counted with hemocytometer using 1:2 dilutions with Trypan blue. Subsequently, cell viability was calculated. In a 12 well tissue culture plate, we used the plastic pattern to draw a fine space with a fine marker on the bottom of the plate. Cells were seeded at 1.5-2.2×10^5 cells/mL in 1 mL and incubated for 24 h. Cells were then rinsed with PBS and incubated in starving media (0.5% FBS) overnight. All controls and drugs were tested in triplicate. The negative control for each drug was prepared according to the drug's DMSO concentration. […] The wound was made using a sterile pipette tip of 200 μL. Cells were then rinsed very gently with media without FBS and media with negative controls was added. After a 24 h incubation, the gap distance was evaluated using the software Lumera Infinity Analyze 6.4.0. Pictures were taken at 0, 8, 12 and 24 h using a 10× objective in an Inverted Laboratory Microscope Leica DM IL LED, and an Infinity1-3 3.1 Megapixel USB 2.0 camera CMOS. The percentage of migration was calculated using the following formula: […]

MDA-MB-435 [2] = assay: Initial screening, SRB assay GI50; format: cell-based; settings: Homo sapiens, 48 hrs, read-out: MDA-MB435 GI50
Method: (§1) For initial screening, the GIso of compounds 4a-4h in the cell lines MDA-MB-231, MDA-MB-435 and MCF-7 was determined via the SRB-assay for 48 hrs as follows:
(§2) A stock solution of compounds was prepared at 50 mM in 100% DMSO. For cells preparation, a flask of 75 cm^2 or 25 cm^2 were used for 2.6×10^5 cells/mL or 1.44×10^5 cells/mL, respectively, with an 80-90% of confluence. Cells were washed with PBS and trypsinized. The concentration of cells was determined using a 1:2 dilutions with Trypan Blue and a hemocytometer. After cell count, the concentration was adjusted to have a 7.0-10.0×10^4 cells/mL. Approximately 100 μL of cells suspension, compounds, control positive and control negative were added in triplicates to a 96 well plate. Positive control used was doxorubicin, and the negative control was DMSO 0.1%. All compounds (4a-h) at 50, 25, 12.5, 6.3, and 1.6 μM were incubated with cells at 37° C. for 48 hrs. For fixation, cold TCA 50% was used and incubated at 4° C. for 1 h. Wells were washed and dried prior to tincture with 100 μL of SRB 0.4%. To remove excess of SRB, acetic acid was used. For analysis, TRIS-BASE Solution (pH=10.5) was used and shaken prior to reading using an ELISA reader at 540 nm and the software SoftMax Pro 4.8. For each compound, 50% growth inhibition (GI50) was calculated from Sigmoidal dose-response curves (variable-slope) that were generated with data obtained from experiments carried out in triplicates (GI50 values were generated with GraphPad Prism V. 6.02, GraphPad Software, Inc.).

MCF-7 = assay: Initial screening, SRB assay GI50; format: cell-based; settings: Homo sapiens, MCF7, 48 hrs
Method: as §1, §2

MDA-MB-231 [3] = assay: Initial screening, SRB assay GI50; format: cell-based; settings: Homo sapiens, 48 hrs
Method: as §1, §2

MDA-MB-435 [4] = assay: Cell viability assay (MTT); format: cell-based, human; settings: Homo sapiens, MDA-MB-435
Method: Cells plated at equal density were treated at 500 nM of compounds. After 72 hours, cell viability was measured by a MTT assay. n=3; * p<0.05, ** p<0.01, *** p<0.001.
Cells plated at equal density were treated at 250 nM of 4c at 250 nM.
Data from 3 biologic replicates each with 2 technical replicates. Four parameter dose-response curves generated using GraphPad Prism are shown.
[…]. GI50 was calculated using Graph pad Prism.
(§3) […] Using CellTiter 96 Non-Radioactive Cell Proliferation Assay (Promega, Corp.) according to manufactures' instructions, formazan was used as an indicator of viable cells at an absorbance 570 nm in a Tecan Microplate Reader M100. Data was calculated as fold change from vehicle and fitted using the 4′parameter logic nonlinear regression model in GraphPad Prism software. (n=3 biologic replicates: with 3 technical replicates each).
A range of compounds were tested by MTT assays for cell viability in MDA-MB-231 triple negative breast cancer (TNBC) cells and MDA-MB-435 HER2++ cancer cells. […].

Rac1 = target: T1, Rac1 (Homo sapiens, UniProt P63000); assay: Rac activation assay (PAK-PBD pulldown); format: cell-based; settings: 250 nM, 24 hours, MDA-MB-231
T1 construct: endogenous in cells; host or cells: MDA-MB-231
Method: MDA-MB-231 breast cancer cells were treated for 24 hours with 0 or 250 nM 4c. Cells were lysed and equal amounts of proteins were subjected to pull-down assays using the p21-binding domain of PAK to isolate GTP bound Rac. Top panel, pulldown showing GTP bound Rac1; middle panel, total Rac1 in lysates; bottom panel, actin as a loading control.
MDA-MB-231 triple negative breast cancer cells were seeded at equal density and treated with vehicle or Compound 4c for 24 hrs at various concentrations. Rac-GTP was detected using Rac Activity Assay, as per manufacturer's instructions (Cell Signaling). Briefly, total cell lysates were quantified and added equally to Pak-PBD beads. After 1 hr of incubation, beads were washed and Rac1-GTP (in pellets) or total Rac1 (in cell lysates) was detected by western blot using Rac1 antibody. (n=3 biological replicates).

Panc-1 [5] = assay: Wound healing assay; format: cell-based; settings: Homo sapiens, 24 hr, read-out: inhibition of Panc-1 cell migration
Method: Mircrographs were digitally acquired at 0, 12, and 24 hours and the area of the wound quantified relative to the distance at time 0. n=3.
Panc-1 cells plated at equal density were subjected to a scratch in the center and treated with 4c at 0, 150 nM, 250 nM, or 500 nM. Mircrographs were digitally acquired at 0, 12, and 24 hours and the area of the wound quantified relative to the distance at time 0. n=3.

Panc-1 [6] = assay: Cell viability assay (MTT); format: cell-based; settings: Homo sapiens, 120 hours, 0-1000 nM
Method: as §3

GI50 (MDA-MB-435 [2]): 1600 nM | GI50 (MCF-7): 3200 nM | GI50 (MDA-MB-231 [3]): 17200 nM | GI50 (MDA-MB-435 [4]; 120 hours, 0-1000 nM, read-out: GI50, MDA-MB-435): 261 nM | reduction of Rac1 activation by GTP loading (Rac1): 85% | GI50 (Panc-1 [6]): 235 nM
Compound: CCn1c2ccccc2c2cc(-n3nnc(C(O)c4cccc(OC)c4)c3-c3ccccc3)ccc21 (centres unmarked) [Compound 4c, (1-(9-ethyl-9H-carbazol-3-yl)-5-phenyl-1H-1,2,3-triazol-4-yl) (3-methoxyphenyl) methanol]
inhibition at 10 µM (MDA-MB-231 [1]): 50.8 ± 11.4% | inhibition at […] (MDA-MB-435 [4]; 250 nM (FIG. 1C), read-out: inhibition of MDA-MB-435 cells): ~60% | cytotoxicity at 0.5 µM (MDA-MB-435 [4]; 500 nM, 72 hours, read-out: decrease in cell viability, MDA-MB-435): ~80% | inhibition at […] (Panc-1 [5]; 250 nM): ~40% | inhibition at 0.5 µM (Panc-1 [5]; 500 nM): 75%
